Source: patent US20250243344A1, “COMPOUND, RUBBER BLEND CONTAINING THE COMPOUND, VEHICLE TIRE COMPRISING THE RUBBER BLEND IN AT LEAST ONE COMPONENT, PROCESS FOR PREPARING THE COMPOUND, AND USE OF THE COMPOUND AS AN ANTI-AGING AGENT AND/OR ANTIOXIDANT” (Continental Reifen Deutschland GmbH, priority 2022, published 2025)

Experiment: Measurement of oxidation induction time (OIT) by DSC
Conditions: for Time at 180° C. (time to oxidation, oxidation induction time): isothermal 180° C., with liquid polyisoprene LIR-50, O2 atmosphere 50 ml/min, DSC peak
Procedure: The compound of formula III) was investigated under laboratory conditions for its potential protective effect as an aging stabilizer by measurement of the oxidation induction time.
To this end the compounds of formula III) and 6PPD in each case together with a polymer (liquid synthetic polyisoprene (IR), LIR-50, Kuraray, weight average molecular weight distribution Mw=54 000 g/mol, glass transition temperature Tg=−63° C.) were heated at constant temperature (180° C.) until onset of oxidation (start temperature 35° C., heating to 170° C. at a heating rate of 20 K/min (kelvin per minute), heating to 180° C. at a heating rate of 1 K/min; purge gas: nitrogen (N2), volume flow 50 ml/min).
The specimen was kept under isothermal conditions at 180° C. under an N2 atmosphere for 5 minutes and the atmosphere was then switched to an O2 atmosphere (volume flow 50 ml/min).
Oxidation was determined via a peak using DSC (differential scanning calorimetry).
The time in minutes to oxidation was measured.

| SMILES | Time at 180° C. (time to oxidation, oxidation induction time) [min] | antioxidant effect compared to 6PPD (at 180° C., taking into account measurement accuracy of ± 10 minutes) |
| --- | --- | --- |
| CC(C)CC(C)Nc1ccc(Nc2ccccc2)cc1 (stereo not drawn) [Formula 6PPD, N-(1,3-dimethylbutyl)-N′-phenyl-p-phenylenediamine, reference compound] | 116 ± 10 |  |
| CC(C)CC(C)Nc1ccc2[nH]c3c(c2c1)CCCC3 (stereo not drawn) [Formula III), 6-(1,3-dimethylbutylamino)-2,3,4,9-tetrahydro-1H-carbazole] | 119 ± 10 | comparable antioxidant effect to 6PPD |
